Test results reported in US11141452B2, “Bifunctional compounds for relief of pain comprising an opioid receptor agonist moiety and a NK1 receptor antagonist moiety and methods for treating pain” (THE ARIZONA BOARD OF REGENTS ON BEHALF OF THE UNIVERSITY OF …, priority 2014, dated 2021).
Values joined by “and” are separate entries in the source; they are usually repeats but may differ in a detail not shown here. Equal entries are not always repeated. Where two headings read alike, the source gives them in different places. Non-standard residues stand in square brackets, D forms with d. Residues, ends and D or L forms follow the SMILES beside them. *: point of attachment. NH(3,5-(CF3)2-benzyl) = FC(F)(F)c1cc(CN*)cc(C(F)(F)F)c1; Dmt = Cc1cc(O)cc(C)c1C[C@H](N)C(=O)O; NMeF = CN[C@@H](Cc1ccccc1)C(=O)O

Assays:
NK1R = target: T1, NK1R (Cavia porcellus, UniProt P30547); test: GPI/LMMP functional assay at NK1R (agonist and antagonist testing); type: cell-based, guinea pig; details: for Kb: antagonist activity; for GPI/LMMP (NK1R) Agonist: agonist activity at the concentration in the cell
T1 construct: The longitudinal muscle with myenteric plexus (LMMP) was carefully separated from the circular muscle; from tissue; host or cells: guinea pig ileum longitudinal muscle with myenteric plexus

DOR [1] = target: DOR (Homo sapiens, UniProt P41143); test: Radioligand binding assay at δ opioid receptor; details: for Ki: Ki^δ (nM)
Procedure: (§1) Binding affinities of these ligands were measured on radioligand binding assays. […] ([43]).

MOR [2] = test: Radioligand binding assay at μ opioid receptor; details: for Log[IC50±] (μ): log IC50 ± error; for Ki^μ/Ki^δ: ratio of binding affinities MOR/DOR
Procedure: as §1

MOR [3] = test: Guinea pig isolated ileum (GPI) functional assay; type: cell-based
[4] = tested on: rats (acute thermal pain, paw withdrawal reflex)
in vitro = details: rat, plasma
DOR [5] = target: T2, DOR (Mus musculus, UniProt P32300); test: Mouse isolated vas deferens (MVD) functional assay; type: cell-based; details: for IC50: MVD (DOR) IC50 (nM), agonist activity, electrically stimulated tissue
T2 construct: Male ICR mice under CO2 anesthesia were sacrificed by cervical dislocation and the vasa differentia removed; from tissue; host or cells: mouse vas deferens (ICR mice)

[6] = tested on: mice (acute thermal pain, tail flick); test: Tail flick latency, 52° C. water bath, after intrathecal injection; type: in vivo, mouse
Procedure: Tail flick latencies were re-assessed at up to 8 time points after administration. […] Mice with baseline TFLs<3 s or >9 s were excluded from the study.
For both studies, maximal percent efficacy was calculated and expressed as: % Antinociception=100*(test latency after drug treatment−baseline latency)/(cutoff−baseline latency) Statistics: Between group data were analyzed by non-parametric two-way analysis of variance (ANOVA; post hoc. Neuman-Kuels) in FlashCalc (Dr. Michael H. Ossipov, University of Arizona, Tucson, Ariz., USA). Within group data were analyzed by non-parametric one-way analysis of variance (ANOVA; post hoc: Bonferroni) in FlashCalc (Dr. Michael H. Ossipov, University of Arizona, Tucson, Ariz., USA). Differences were considered to be significant if P≤0.05.

hNK1 = target: T3, hNK1 (Homo sapiens, UniProt P25103); test: hNK1/CHO cell membrane radioligand binding assay ([3H]SP); details: for Ki: Ki^hNK1 (nM), hNK1/CHO membranes, [3H]SP; for Ki^hNK1/Ki^rNK1: ratio human/rat NK1
T3 construct: expressed in transfected cells; host or cells: CHO

rNK1 = rNK1 (Rattus norvegicus, UniProt P14600); test: Radioligand binding assay at rat NK1 receptor; details: Ki^rNK1 (nM)
Procedure: as §1

[7] = read-out: GPI/LMMP (NK1R) Ke (nM) ± S.E.M.
[8] = agonist activity, electrically stimulated tissue, read-out: GPI (MOR) IC50

T2 sequence (P32300 whole entry): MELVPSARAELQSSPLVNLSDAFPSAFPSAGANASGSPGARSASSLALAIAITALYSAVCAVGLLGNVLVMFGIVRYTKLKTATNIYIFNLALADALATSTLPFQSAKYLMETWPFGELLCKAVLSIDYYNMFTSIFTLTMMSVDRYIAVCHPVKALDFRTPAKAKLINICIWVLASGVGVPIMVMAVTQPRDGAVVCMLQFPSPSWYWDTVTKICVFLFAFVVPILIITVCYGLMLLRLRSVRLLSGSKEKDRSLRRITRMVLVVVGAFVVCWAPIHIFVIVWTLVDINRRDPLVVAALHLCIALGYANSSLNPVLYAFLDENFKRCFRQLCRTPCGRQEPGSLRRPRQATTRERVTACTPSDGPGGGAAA
Chain of DOR (Homo sapiens, UniProt P41143) (P41143 whole entry): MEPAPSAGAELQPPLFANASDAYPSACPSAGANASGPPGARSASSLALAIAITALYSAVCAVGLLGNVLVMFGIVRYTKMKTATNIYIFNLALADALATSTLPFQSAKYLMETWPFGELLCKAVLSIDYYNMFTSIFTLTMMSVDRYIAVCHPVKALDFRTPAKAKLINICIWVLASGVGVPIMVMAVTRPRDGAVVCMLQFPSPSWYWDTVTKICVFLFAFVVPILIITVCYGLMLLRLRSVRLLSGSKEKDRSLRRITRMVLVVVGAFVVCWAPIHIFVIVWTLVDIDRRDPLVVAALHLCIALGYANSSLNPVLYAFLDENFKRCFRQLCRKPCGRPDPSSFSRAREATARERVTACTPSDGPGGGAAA
T3 sequence (P25103 whole entry): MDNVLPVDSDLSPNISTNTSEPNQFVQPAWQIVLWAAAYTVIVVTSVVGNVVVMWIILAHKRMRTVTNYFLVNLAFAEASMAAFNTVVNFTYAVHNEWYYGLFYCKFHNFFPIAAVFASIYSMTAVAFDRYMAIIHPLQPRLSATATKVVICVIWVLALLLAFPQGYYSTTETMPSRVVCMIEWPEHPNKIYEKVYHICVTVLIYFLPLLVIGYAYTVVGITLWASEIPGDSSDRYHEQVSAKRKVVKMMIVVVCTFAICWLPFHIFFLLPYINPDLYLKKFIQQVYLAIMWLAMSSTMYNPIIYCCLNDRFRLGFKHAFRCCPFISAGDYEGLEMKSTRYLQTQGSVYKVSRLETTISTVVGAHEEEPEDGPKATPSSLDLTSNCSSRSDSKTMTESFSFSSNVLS
T1 sequence (P30547 whole entry): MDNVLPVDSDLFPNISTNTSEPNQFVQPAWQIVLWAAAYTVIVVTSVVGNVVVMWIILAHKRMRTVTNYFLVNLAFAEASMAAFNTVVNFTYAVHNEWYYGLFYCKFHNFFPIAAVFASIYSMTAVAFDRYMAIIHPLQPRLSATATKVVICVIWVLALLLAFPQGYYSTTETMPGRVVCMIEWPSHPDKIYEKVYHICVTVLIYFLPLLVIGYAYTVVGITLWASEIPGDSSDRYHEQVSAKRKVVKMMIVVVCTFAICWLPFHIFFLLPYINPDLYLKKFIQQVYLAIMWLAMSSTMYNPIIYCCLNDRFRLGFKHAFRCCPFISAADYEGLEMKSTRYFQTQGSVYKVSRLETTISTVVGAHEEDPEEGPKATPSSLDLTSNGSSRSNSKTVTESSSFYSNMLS
Chain of rNK1 (P14600 whole entry): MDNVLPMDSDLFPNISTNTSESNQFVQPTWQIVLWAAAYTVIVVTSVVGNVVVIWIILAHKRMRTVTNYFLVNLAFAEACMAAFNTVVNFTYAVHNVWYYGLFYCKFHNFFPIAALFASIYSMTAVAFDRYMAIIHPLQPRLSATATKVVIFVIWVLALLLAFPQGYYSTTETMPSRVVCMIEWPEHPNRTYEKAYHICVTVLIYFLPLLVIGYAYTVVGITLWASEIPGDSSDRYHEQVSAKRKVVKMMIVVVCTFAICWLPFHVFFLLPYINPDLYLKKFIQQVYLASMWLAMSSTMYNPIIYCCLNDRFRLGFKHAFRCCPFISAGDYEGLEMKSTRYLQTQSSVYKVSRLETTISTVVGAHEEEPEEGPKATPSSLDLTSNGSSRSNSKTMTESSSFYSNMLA

Structure (SMILES) | Kb (NK1R; [7]) | IC50 (DOR [1]) | Ki (MOR [2]) | Log[IC50±] (μ) (MOR [2]) | IC50 (MOR [3]; [8]) | half-life (in vitro) | IC50 (DOR [5]) | GPI/LMMP (NK1R) Agonist (NK1R) | Ki^μ/Ki^δ (MOR [2]) | Ki (hNK1) | Ki^hNK1/Ki^rNK1 (hNK1) | Ki (rNK1) | higher agonist activity at DOR compared to MOR (functional assays) (DOR [5]) | Ki (DOR [1]) | other results
Cc1cc(O)cc(C)c1C[C@H](N)C(=O)N[C@H](C)C(=O)NCC(=O)N(C)[C@@H](Cc1ccccc1)C(=O)N1CCC[C@H]1C(=O)N[C@@H](CC(C)C)C(=O)N[C@@H](Cc1c[nH]c2ccccc12)C(=O)NCc1cc(C(F)(F)F)cc(C(F)(F)F)c1 [AKG115, H-Dmt-D-Ala-Gly-NMePhe-Pro-Leu-Trp-NH-Bn(3′,5′-(CF3)2)] | 9.7 nM | 12 nM | 1 nM | −8.78 ± 0.05 | 21 nM and 20.6 nM | > 1440 min | 30.7 ± 7.5 nM |  |  |  |  |  |  |  | maximal level of antinociception ([4]; 0.1 μg i.t.): minimal; motor skills ([4]; 10 μg in 5 μl): motor skills were impaired; Paw withdrawal latencies (PWLs) ([4]; spinal 0.1 μg in 5 μL, 60 min after the injection): not significantly higher than vehicle-treated rats and baseline values
Cc1cc(O)cc(C)c1C[C@H](N)C(=O)N[C@H](C)C(=O)NCC(=O)N[C@@H](Cc1ccc(F)cc1)C(=O)N1CCC[C@H]1C(=O)N[C@@H](CC(C)C)C(=O)N[C@@H](Cc1c[nH]c2ccccc12)C(=O)NCc1cc(C(F)(F)F)cc(C(F)(F)F)c1 [AKG127, H-Dmt-D-Ala-Gly-Phe(4-F)-Pro-Leu-Trp-NH-Bn(3′,5′-(CF3)2)] | 5.3 nM |  | 1 nM | −8.72 ± 0.08 | 42 nM and 41.6 nM | > 1440 min | 1.9 nM and 1.96 nM | None at 30 nM | 1/1 | 1 nM | 1/33 | 29.4 ± 1.5 nM | 21 times |  | maximal level of antinociception (% antinociception) ([6]; 0.1 μg i.t.): approximately 70%; tail flick latencies (TFLs) ([6]; 0.1 μg in 5 μl, i.t., 60 min after injection): significantly higher than vehicle-treated mice and baseline values
CC(C)C[C@H](NC(=O)[C@@H]1CCCN1C(=O)[C@H](Cc1ccc(F)cc1)NC(=O)CNC(=O)[C@@H](C)NC(=O)[C@@H](N)Cc1ccc(O)cc1)C(=O)N[C@@H](Cc1c[nH]c2ccccc12)C(=O)NCc1cc(C(F)(F)F)cc(C(F)(F)F)c1 [AKG190, H-Tyr-D-Ala-Gly-Phe(4-F)-Pro-Leu-Trp-NH-Bn(3′,5′-(CF3)2)] |  |  | 4 nM | −8.08 ± 0.10 | 65 nM and 64.8 nM | < 120 min | 12.1 ± 4 nM | None at 30 nM | 20/1 | 5.61 ± 0.65 nM | 1/6 |  | 5 times | 0.2 nM | binding selectivity for DOR over MOR (DOR [1]): 20 times
Cc1cc(O)cc(C)c1C[C@H](N)C(=O)N[C@H](C)C(=O)NCC(=O)N(C)[C@@H](Cc1ccccc1)C(=O)N[C@@H](CO)C(=O)NCC(=O)N1CCC[C@H]1C(=O)N[C@@H](CC(C)C)C(=O)N[C@@H](Cc1c[nH]c2ccccc12)C(=O)NCc1cc(C(F)(F)F)cc(C(F)(F)F)c1 [AKG-CRA-137] (H-[Dmt][dA]G[NMeF]SGPLW-{NH(3,5-(CF3)2-benzyl)}) |  | 2.69 nM | 0.7 nM | −8.82 ± 0.26 | 7.9 nM |  | 16.4 ± 5.17 nM | None at 100 nM |  | 4.9 nM and 4.76 nM | 1/18 | 87.5 nM |  | 1 nM | Kb (NK1R; GPI/LMMP (NK1R) Ke (nM) ± S.E.M.): 26.3 ± 5.7 nM; GPI/MVD IC50 ratio (MOR [3]): 1/2; IC50 (MOR [3]; head of Table IX, read-out: GPI (MOR) ID50): 7.87 ± 2.57 nM
CSCC[C@H](NC(=O)[C@H](Cc1ccccc1)NC(=O)CNC(=O)[C@@H](C)NC(=O)[C@@H](N)Cc1c(C)cc(O)cc1C)C(=O)N1CCC[C@H]1C(=O)N[C@@H](CC(C)C)C(=O)N[C@@H](Cc1c[nH]c2ccccc12)C(=O)NCc1cc(C(F)(F)F)cc(C(F)(F)F)c1 [TY032, H-Dmt-D-Ala-Gly-Phe-Met-Pro-Leu-Trp-NH-Bn(3′,5′-(CF3)2), reference compound] |  |  |  |  |  | > 360 min |  |  |  |  |  |  |  |  | 
